Where two headings read alike, the source gives them in different places. Starred links: 1 amine or outer side, 2 acyl side, 3 side chain; linkers in the order of their positions; H or OH if unused. Positions of bridges follow the written chain, without caps; N, C: chain ends. Non-standard residues stand in square brackets, D forms with d. Residues, ends and D or L forms follow the SMILES beside them. *: point of attachment. Butanoyl(4-(4-I-phenyl)) = O=C(CCCc1ccc(I)cc1)*; TBMB = c1c(C[*:1])cc(C[*:3])cc1C[*:2]; Benzoyl(3-I) = O=C(c1cccc(I)c1)*; 4Abz = Nc1ccc(C(=O)O)cc1
Test: Biodistribution in U-87 MG tumor-bearing mice
Assay type: in vivo, BALB/c nu-nu mice
Settings: male, BALB/c nu-nu, mouse, iv, 37 kBq, total radioactivity, U-87 MG-bearing mice, mean ± SD, n = 3; for tissue uptake at 1 h / tissue uptake dose at 1 h: 1 h after i.v. administration; for tissue uptake at 2 h / tissue uptake dose at 2 h: 2 h after i.v. administration; for tissue uptake at 6 h / tissue uptake dose at 6 h: 6 h after i.v. administration; for tissue uptake at 5 min / tissue uptake dose at 5 min: 5 min after i.v. administration; for tissue uptake at 0.5 h / tissue uptake dose at 0.5 h: 30 min after i.v. administration
Experimental: Animal experiments were performed in compliance with institutional animal care regulations, with the study protocol approved by the Experimental Animal Committee of Osaka Medical and Pharmaceutical University (Approval Numbers: 21–76, 22–76, and 23–76). Four-week-old male BALB/c nu-nu mice (Japan SLC, Shizuoka, Japan) were housed under a 12 h light/12 h dark cycle with free access to food and water. Tumor-bearing mice were established by suspending U-87 MG cells (2 × 10^6 cells/mouse) in PBS(–) and subcutaneously injecting 100 μL of the suspension into the right hind leg. For co-implantation models, A549 cells (2 × 10^6 cells/mouse) were suspended in PBS(–) and inoculated (100 μL) into the left hind leg of the same mice already inoculated with U-87 MG cells. Mice with tumor size approximately 10 mm in diameter, 4–5 weeks after inoculation, were used for biodistribution studies. Animals in which either tumor was not viable were excluded from the experiment.
U-87 MG-bearing mice (n = 42, 8–9 weeks old; 22–27 g) were randomly assigned into groups and administered [^125I]bcRGDpal or [^125I]bcRGDiba via intravenous injection (37 kBq in 100 μL of PBS containing 0.1% Tween 80 (PBS-T80)). At 5 min, 30 min, 1 h, 2 h, 6 h, 12 h, or 24 h post-injection, the mice were euthanized (n = 3 per time point). The heart, kidneys, liver, brain, pancreas, spleen, lung, small intestine, large intestine, muscle, skin, stomach, bone, and tumors were excised. Each organ’s weight and radioactivity were measured by a NaI well-type scintillation counter, and the % ID/g was calculated. To investigate the correlation between integrin expression and radioactivity accumulation, biodistribution at 2 h after administration of [^125I]bcRGDpal or [^125I]bcRGDiba was assessed in A549 and U-87 MG co-implantation mice (n = 5) using the same procedure. Additionally, co-implantation mice were injected with [^125I]bcRGDdimer (37 kBq/100 μL PBS-T80) and euthanized at 30 min, 2 h, and 4 h post-injection (n = 4 per time point), and % ID/g values were calculated as described above. The minimum sample size needed for the biodistribution study in U-87 MG-bearing mice was calculated using G Power software version 3.1.9.7. The calculation was based on a two-tailed test, with an effect size of 3.9, a significance level (α) of 0.05, and a statistical power (1 − β) of 0.8. […] The minimum required sample size for the biodistribution study in A549 and U-87 MG co-implantation mice was also calculated to be four animals per group (effect size = 2.5, α = 0.05, 1 − β = 0.8). To guarantee objective results, the experiment was carried out in a blinded manner. Specifically, drug administration and radioactivity measurements were conducted by different investigators to eliminate potential bias.

[1] = liver, read-out: Radioactivity in liver
[2] = lung, read-out: Radioactivity in lung
[3] = muscle, read-out: Radioactivity in muscle
[4] = pancreas, read-out: Radioactivity in pancreas
[5] = small intestine, read-out: Radioactivity in small intestine
[6] = spleen, read-out: Radioactivity in spleen
[7] = stomach, read-out: Radioactivity in stomach
[8] = thyroid, read-out: Radioactivity in thyroid

N=C(N)NCCC[C@@H]1NC(=O)[C@H]2CSCc3cc(cc(c3)CSC[C@H](C(N)=O)NC(=O)[C@H](CC(=O)O)NC(=O)CNC1=O)CSC[C@H](NC(=O)CNC(=O)[C@H](CO)NC(=O)c1ccc(NC(=O)CNC(=O)[C@H](CO)NC(=O)[C@@H]3CCCN3C(=O)[C@@H]3CCCN3C(=O)[C@@H]3CCCN3C(=O)[C@H](CCCCNC(=O)c3cccc(I)c3)NC(=O)CCCc3ccc(I)cc3)cc1)C(=O)N[C@@H](Cc1c[nH]cn1)C(=O)N1CCC[C@H]1C(=O)N[C@@H](CCC(N)=O)C(=O)N2 [[^125I]bcRGDiba] ({Butanoyl(4-(4-I-phenyl))}-K(Benzoyl(3-I))PPPSG[4Abz]SGCHPQ[dC]RGD[dC]-NH2; linker 10-14-18 via TBMB) gave a tissue uptake at 1 h [1] of 5.7 ± 0.7 %ID/g, a tissue uptake at 2 h [1] of 5.1 ± 0.4 %ID/g and a tissue uptake at 6 h [1] of 3.4 ± 0.4 %ID/g. It also gave a tissue uptake at 12 h (liver, 12 h after i.v. administration, read-out: Radioactivity in liver) of 1.4 ± 0.2 %ID/g, a tissue uptake at 24 h (liver, 24 h after i.v. administration, read-out: Radioactivity in liver) of 0.6 %ID/g and a tissue uptake at 5 min [2] of 10.7 ± 1.9 %ID/g. It also gave a tissue uptake at 0.5 h [2] of 9.4 ± 0.3 %ID/g, a tissue uptake at 1 h [2] of 8.2 ± 0.6 %ID/g and a tissue uptake at 2 h [2] of 7.5 ± 0.4 %ID/g. The tissue uptake at 6 h [2] was 5.3 ± 0.5 %ID/g, the tissue uptake at 12 h (lung, 12 h after i.v. administration, read-out: Radioactivity in lung) was 2.6 ± 0.3 %ID/g and the tissue uptake at 24 h (lung, 24 h after i.v. administration, read-out: Radioactivity in lung) was 1.2 ± 0.1 %ID/g. For the same compound, the tissue uptake at 5 min [3] was 1.4 ± 0.4 %ID/g, the tissue uptake at 0.5 h [3] was 1.5 ± 0.2 %ID/g and the tissue uptake at 1 h [3] was 1.5 ± 0.1 %ID/g. The tissue uptake at 2 h [3] was 1.5 ± 0.2 %ID/g, the tissue uptake at 6 h [3] was 1.2 ± 0.3 %ID/g and the tissue uptake at 12 h (muscle, 12 h after i.v. administration, read-out: Radioactivity in muscle) was 0.5 ± 0.1 %ID/g. The tissue uptake at 24 h (muscle, 24 h after i.v. administration, read-out: Radioactivity in muscle) was 0.3 %ID/g, the tissue uptake at 5 min [4] was 2.3 ± 0.4 %ID/g and the tissue uptake at 0.5 h [4] was 2 ± 0.2 %ID/g. For the same compound, the tissue uptake at 1 h [4] was 1.5 ± 0.2 %ID/g, the tissue uptake at 2 h [4] was 1.4 ± 0.2 %ID/g and the tissue uptake at 6 h [4] was 1 ± 0.2 %ID/g. The tissue uptake at 12 h (pancreas, 12 h after i.v. administration, read-out: Radioactivity in pancreas) was 0.5 ± 0.1 %ID/g, the tissue uptake at 24 h (pancreas, 24 h after i.v. administration, read-out: Radioactivity in pancreas) was 0.2 %ID/g and the tissue uptake at 5 min [5] was 2.3 ± 0.4 %ID/g. It also gave a tissue uptake at 0.5 h [5] of 3 ± 0.1 %ID/g, a tissue uptake at 1 h [5] of 4.8 ± 0.6 %ID/g and a tissue uptake at 2 h [5] of 4.9 ± 0.3 %ID/g. For the same compound, the tissue uptake at 6 h [5] was 5.6 ± 1.1 %ID/g, the tissue uptake at 12 h (small intestine, 12 h after i.v. administration, read-out: Radioactivity in small intestine) was 2.2 ± 0.5 %ID/g and the tissue uptake at 24 h (small intestine, 24 h after i.v. administration, read-out: Radioactivity in small intestine) was 0.9 ± 0.1 %ID/g. For the same compound, the tissue uptake at 5 min [6] was 2.9 ± 0.5 %ID/g, the tissue uptake at 0.5 h [6] was 3 ± 0.2 %ID/g and the tissue uptake at 1 h [6] was 2.5 ± 0.2 %ID/g. It also gave a tissue uptake at 2 h [6] of 2.3 ± 0.3 %ID/g, a tissue uptake at 6 h [6] of 1.7 ± 0.5 %ID/g and a tissue uptake at 12 h (spleen, 12 h after i.v. administration, read-out: Radioactivity in spleen) of 0.9 ± 0.1 %ID/g. The tissue uptake at 24 h (spleen, 24 h after i.v. administration, read-out: Radioactivity in spleen) was 0.4 %ID/g, the tissue uptake dose at 5 min [7] was 0.4 ± 0.1 %ID and the tissue uptake dose at 0.5 h [7] was 0.8 ± 0.2 %ID. It also gave a tissue uptake dose at 1 h [7] of 0.7 ± 0.1 %ID, a tissue uptake dose at 2 h [7] of 0.7 ± 0.3 %ID and a tissue uptake dose at 6 h [7] of 0.8 ± 0.2 %ID. It also gave a tissue uptake dose at 12 h (stomach, 12 h after i.v. administration) of 0.2 ± 0.1 %ID, a tissue uptake dose at 24 h (stomach, 24 h after i.v. administration) of 0.2 %ID and a tissue uptake dose at 5 min [8] of 0.1 %ID. The tissue uptake dose at 0.5 h [8] was 0.1 ± 0.1 %ID, the tissue uptake dose at 1 h [8] was 0.1 ± 0.1 %ID and the tissue uptake dose at 2 h [8] was 0.1 ± 0.1 %ID. It also gave a tissue uptake dose at 6 h [8] of 0.1 %ID.

— PMC12030627, “Radioiodinated Bicyclic RGD Peptide Derivatives for Enhanced Tumor Accumulation” (Pharmaceuticals, 2025)
